Results: PubChem BioAssay (NCI)
“And” between values parts separate entries of the source, which are not always exact repeats. Equal entries are not always repeated.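 Results reflect a 48-hour exposure of cells in 96-well plates to compound at five concentrations. GI50 = concentration required for 50% inhibition of growth. TGI is the concentration that stops growth completely.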

Experiments:
Experiment in all cases: DTP human tumour cell line panel, 48 h
[1] = tested on: ACHN renal
[2] = tested on: CAKI-1 renal
[3] = tested on: CCRF-CEM leukemia
[4] = tested on: HT29 colon
[5] = tested on: K-562 leukemia
[6] = tested on: M14 melanoma
[7] = tested on: MALME-3M melanoma
[8] = tested on: MCF7 breast
[9] = tested on: MOLT-4 leukemia
[10] = tested on: TK-10 renal

| SMILES | GI50 [1] | TGI [1] | GI50 [2] | TGI [2] | GI50 [3] | TGI [3] | GI50 [4] | TGI [4] | GI50 [5] | TGI [5] | GI50 [6] | TGI [6] | GI50 [7] | TGI [7] | GI50 [8] | TGI [8] | GI50 [9] | TGI [9] | GI50 [10] | TGI [10] |
| --- | --- | --- | --- | --- | --- | --- | --- | --- | --- | --- | --- | --- | --- | --- | --- | --- | --- | --- | --- | --- |
| O=[N+]([O-])/C(=C/C=C/c1ccccc1)c1ccccc1 | 2.14 µM | 5 µM | 0.805 µM | 3.06 µM | 0.764 µM | 2.39 µM | 3.23 µM | 7.18 µM | 1.7 µM | 5 µM | 2.02 µM | 5.31 µM | 1.84 µM | 5.4 µM | 1.48 µM | 4.23 µM | 1.47 µM | 3.61 µM | 2.04 µM | 4.46 µM |
| COc1ccc(N=C2C(=O)Nc3ccc(Br)cc32)cc1 | – | 38.6 µM | – | 60.6 µM | – | 37.2 µM | – | 58.1 µM | – | 33.2 µM | – | 37.2 µM | – | 43 µM | – | 35.2 µM | – | 74.4 µM | – | 56.9 µM |
| Cc1nc2sc(C(=O)Nc3cccc(Cl)c3)c(N)c2cc1C(O)c1ccccc1 (configuration not stated) | 0.884 µM | 13.4 µM | 0.789 µM | 17 µM | 0.483 µM | > 100 µM | 0.387 µM | > 100 µM | 0.488 µM | > 100 µM | 0.709 µM | > 100 µM | 0.722 µM | 20.4 µM | 0.373 µM | 16.9 µM | 0.611 µM | > 100 µM | 3.77 µM | 33.6 µM |
| OCCN1CCCN(CCCN2c3ccccc3Sc3ccc(C(F)(F)F)cc32)CC1 | 3.56 µM | 13.4 µM | 2.3 µM | 6.26 µM | 2.42 µM | 5.76 µM | 1.76 µM | 3.75 µM | 1.57 µM | 3.23 µM | 1.97 µM | 3.9 µM | 2.02 µM | 3.82 µM | 1.6 µM | 3.14 µM | 2.39 µM | 5.2 µM | 1.68 µM | 3.58 µM |
| CCCC/C=C1/CCC(CN(C)C)C1=O (configuration not stated) | – | 4.6 µM | – | 1.78 µM | 0.424 µM | 1.76 µM | 2.3 µM | 4.7 µM | – | 3.79 µM | – | 3.26 µM | – | 4.07 µM | – | 4.34 µM | 1.21 µM | 4.15 µM | – | 2.51 µM |
| COc1ccc([C@H]2c3[nH]c4ccccc4c3C[C@H]3C(=O)N(CCCCCCC(=O)NO)CC(=O)N23)cc1 | 1.92 µM | 12.8 µM | 1.68 µM | 13.9 µM | 1.48 µM | > 33.3 µM | 3.73 µM | > 33.3 µM | 0.895 µM | > 33.3 µM | 1.75 µM | > 33.3 µM | 0.806 µM | > 33.3 µM | 1.78 µM | > 33.3 µM | 1.11 µM | > 33.3 µM | 2.86 µM | 32.7 µM |
| O=C(NCCNC1=CC(=O)c2nc3ccccc3c3ccnc1c23)c1cnccn1 | 32.4 µM | > 100 µM | 15.8 µM | 50.9 µM | 1.94 µM | > 100 µM | 33 µM | > 100 µM | 33.6 µM | > 100 µM | 40.8 µM | > 100 µM | 18.2 µM | > 100 µM | 21.4 µM | > 100 µM | 35.7 µM | > 100 µM | 10.3 µM | 37.2 µM |
| CC(=O)O[C@H]1C(=O)[C@@]2(C)C([C@H](OC(=O)c3ccccc3)[C@]3(O)C[C@H](OC(=O)[C@H](O)[C@@H](NC(=O)c4ccc(Cl)cc4)c4ccccc4)C(C)=C1C3(C)C)C1(OC(C)=O)CO[C@@H]1C[C@@H]2O (some centres not stated) | 10.3 µM | 25 µM and > 100 µM | 0.0269 µM | 25 µM and 32.3 µM | – | 52.2 µM | – | 10.4 µM | – | > 25 µM and 12.5 µM | – | 0.733 µM | 0.0599 µM | 25 µM and 24.1 µM | – | 25 µM | – | 25 µM and 4.77 µM | 0.254 µM | 25 µM and 47.7 µM |
| COc1cc(/C=C/C(=O)/C=C/c2ccc(-n3ccnc3)cc2)ccc1O | 3.27 µM | 12.6 µM | 3.24 µM | 11.5 µM | 2.68 µM | 12.7 µM | 1.97 µM | 3.88 µM | 3.18 µM | > 100 µM | 2.24 µM | 5.98 µM | 5.4 µM | 36.7 µM | 0.827 µM | 6.21 µM | 3.22 µM | 42.8 µM | 4.42 µM | 36.3 µM |
| COc1ccc(C2=NOC3=c4ccccc4=CSC3=C2c2ccccc2)cc1 | 73.7 µM | > 100 µM | 64.7 µM | > 100 µM | 21.7 µM | > 100 µM | 37.1 µM | > 100 µM | 51.2 µM | > 100 µM | 26.3 µM | > 100 µM | 43.7 µM | > 100 µM | 24.2 µM | 62.9 µM | > 100 µM | > 100 µM | 54 µM | > 100 µM |
